One series deals with NOD mice. Conditions: cited from earlier work.
The subject of series [1] is CD4-mediated, HLA-II restricted immune response. Conditions: patients with IDDM; cited from earlier work.
For series [2], the system named is peripheral blood mononuclear cells (PBMCs). The series is described as follows: ELISPOT of IFN-γ and IL-10 secreting cells in PBMCs of DQ8+ type 1 diabetic adolescents. Conditions: for number of IFN-γ secreting cells / number of IL-10 secreting cells / ratio of IL-10/IFN-γ: peptide 50 μM, DQ8+ type 1 diabetic adolescents; for number of IFN-γ secreting cells / number of IL-10 secreting cells: 48 hours, 1×10^5 PBMCs/well, ±SEM. It counts as cell-based, human. The method, then:
Ten diabetic patients were selected (6 females, 4 males; age range: 7-16 years of age) which were positive for the DQ8 allele. With the assistance of endocrine pediatricians, appropriate arrangements were made for two sampling sessions. Written and informed consent was obtained from the parents of the adolescents. For each patient, 20 ml of blood was collected in tubes containing EDTA. These tubes were immediately sent to Cypro SA (Brussels) where peripheral blood mononuclear cells (PBMCs) were isolated using the Lymphoprep™ (Invitrogen) isolation technique.
ELISPOT Assays (Cypro): The general methodology has been described by Tary-Lehmann et al. (see, e.g., Tary-Lahmann et al. (1998) Transplantation 66:219-224). Briefly, PBMCs were seeded at a concentration of 1×10^5/well in 96-well plates coated with anti-human IFN-γ monoclonal antibody (mAb) (Serpime/Nodia) or anti-IL-10 mAb (BD-Pharmingen) in the presence or absence of either PHA (Sigma, 1 μg/ml)+LPS (Sigma, 1 μg/ml), Purified Protein Derivative (PPD, 5 μg/ml), Insulin B9-23 (SEQ ID NO:3 ) (10 and 50 μM), IGF-2 B11-25 (SEQ ID NO:2 )(10 and 50 μM After 48 hours of incubation at 37° C., 5% CO2 on a plane surface, wells were washed three times with PBS Tween 0.25%, then blot dried.
After 1 hour-incubation in a humid room at ambient temperature, the plates were washed and the substrate AEC (3-amino-9-ethylcarazole)+30% H2O2 were added. After 15 minutes (for IFN-γ) or 30 minutes (for IL-10) of incubation at ambient temperature, spots appeared and the reaction was stopped by washing the plates under water. After drying, the spots were counted by image analyzer assisted by computer with filters specific for each cytokine.
A Wilcoxon test was used for statistical analyses (non-parametric paired values).

The test system of series [3] is Igf2-/- and wt mice. Briefly: Anti-IGF-2 humoral response after i.p. immunization of Igf2-/- and wt mice (ELISA). It counts as in vivo, mouse. Conditions: i.p. immunization 5 μg. The method, then:
(§1) Mice immunization. Igf2^−/− and wt mice were injected i.p. with 5 μg of rmIGF-2 (R&D Systems) or with 5 μg of human insulin (Roche) to study the humoral response and with 50 μg of murine IGF-2-derived B11-25 (NEOSYSTEM)(SEQ ID NO:2) to analyze the cellular response. CFA (Sigma-Aldrich) (v/v) is used for the first injection and IFA (Sigma-Aldrich) (v/v) for the other injections. For humoral response, three injections separated by 20 days were performed. Blood test was performed 15 days after each injection in agreement with the Liege University ethic committee. For cellular response, two injections separated by 15 days were performed.
(§2) Dosage of anti-IGF-2 and anti-insulin Abs. Abs against IGF-2 and insulin were detected and quantified using a specific ELISA procedure. Microplates (Nunc Maxisorp 468667; VVWR International) were incubated overnight at 4° C. with 2 μg/ml rmIGF-2 (R&D Systems) or 5 μg/ml human insulin (Roche) in 100 μl of 0.1 M NaHCO3 (pH 8.4). From this step, the procedure was identical between the two kinds of ELISA. SL buffer (0.01 M phosphate buffer, pH 7.4) was used as the basic buffer, and all reactions were incubated at 37° C. under agitation. […] The reaction was stopped with 50 μl of 0.4 N HCl, and the absorbance was measured at 450-620 nm with a spectrophotometer.
Background: In an ELISA, binding on a coated surface is turned into a signal by an enzyme label.

The conditions of series [4]: cited from earlier work.
Series [5] has as its system Igf2-/- and wt mice. Briefly: Anti-insulin humoral response after i.p. immunization of Igf2-/- and wt mice (ELISA). It counts as in vivo, mouse. Conditions: three i.p. injections, mice with day 0 anti-insulin Ab lower than 1 in OD. The method, then:
as §1
as §2, with “spectrophotometer. […]” for “spectrophotometer.”

Series [6] concerns PBMCs. The series is described as follows: IL10 transcription in PBMCs by TaqMan real-time PCR. It counts as cell-based, human. Conditions: 50 μM, 20 hours. As for the experimental part: Total RNA was extracted with the RNeasy Mini Kit (Qiagen, Calif., USA) from PBMCs isolated from 10 healthy controls and from 11 Type 1 diabetics, and cultured for 20 hours with IGF-2 B11-25 (SEQ ID NO:2)(50 μM) or Insulin B9-23 (SEQ ID NO:3 ) (50 μM). Total RNA was measured with a Nanodrop (NanoDrop Technologies, Wilmington, USA). Reverse transcription was performed with Transcriptor First Strand cDNA Synthesis Kit (Roche, Germany). PCR was performed with the following probes:
IL10 transcripts were then quantified using a TaqMan procedure. Standard curves were established from a lot of plasmid containing IL10 according to the procedure described by other authors (Giulietti et al., Methods 25: 386, 2001). […] A strong positive relationship was evidenced between IL-10 concentrations as measured by ELISA and the number of IL10 transcripts as quantified by real-time PCR (R^2=0.62, P<0.0001; Spearman's test). Conclusions
In general terms: Real-time PCR tracks product formation cycle by cycle.

Series [7] deals with peripheral blood mononuclear cells (PBMCs). Briefly: ELISpot of IL-10 secreting cells in PBMCs from healthy controls and adult Type 1 diabetics. It counts as cell-based, human. Conditions: 50 μM, 48h. The method, then:
In comparison to the Insulin B9-23 peptide (SEQ ID NO:3), the presentation of IGF-2 B11-25 (SEQ ID NO:2) increases the number of IL-10 secreting cells in peripheral blood mononuclear cells (PBMCs) from adult Type I diabetics. PBMCs were isolated by a conventional method from the blood of 6 healthy controls and 18 adult Type 1 diabetic patients. The PBMCs were cultured for 48h in 96-well dishes in the presence of IGF-2 B11-25 (SEQ ID NO:2)(50 μM) or […] (50 μM).
The data are presented in FIG. 4 as the number of spots per 10^5 cells. Statistical analyses were performed using Wilcoxon's test.

Series [8] relates to PBMCs. Briefly: IL-10 concentration in PBMC culture supernatants by ELISA. It counts as cell-based, human. Conditions: 20h-culture. The method, then:
PBMCs were isolated from the blood of 10 healthy controls and 13 adult type 1 diabetics. After a 20h-culture, IL-10 concentration in the supernatants was measured using a specific ELISA (BioSource, Nivelles, Belgium).

The subject of series [9] is spleen cells from Igf2-/- and wt mice. Briefly: IL-2 production by IGF-2-specific T cells (spleen cells) after immunization and in vitro stimulation. It counts as cell-based, mouse. Conditions: spleen cells in culture with murine IGF-2-derived B11-25 after two i.p. injections. The method, then: as §1
IL-2 production. After 48, 72, and 96 h of MLR or after 24 and 48 h of specific T cell culture, 800 μl were removed of each condition and IL-2 production released by Igf2^−/− and wt T cells in MLR was assessed by specific ELISA (Biosource Europe).
Statistical analyses. The t test was used to compare Igf2^−/− and wt mice in IL-2 production and Ab production after immunization. The level of significance was p<0.05.

In the case of “SHLVEALYLVCGERG (listed as Homo sapiens) [insulin B9-23, reference compound]”, in the series on NOD mice, the anaphylaxis entry is “induces fatal anaphylaxis” and the incidence of diabetes entry was “accelerates incidence of diabetes”. The “IFN-γ production in response to peptide presentation” value in [1] was “high production of IFN-γ”. Also, in series [2], the “number of IFN-γ secreting cells” value is given as 88.90±23.82, the “number of IL-10 secreting cells” value amounted to 701.8±160.9 and the “ratio of IL-10/IFN-γ” value amounted to 10.22±1.99.
Consider “IGF-2: rmIGF-2 (R&D Systems), insulin-like growth factor 2 used for mice immunization”, for which the anti-IGF-2 humoral response result with Igf2-/- and wt mice [3] (Igf2-deficient mice) was “rapidly induced anti-IGF-2 Abs”. For the same substance, the “anti-IGF-2 T-dependent humoral response (IgG1, IgG2a, IgG2b)” value in the series with Igf2-/- and wt mice [3] (wt mice) was “no T-dependent response was observed”.
For “insulin: human insulin (Roche) for mice immunization; insulin given orally or subcutaneously in cited trials”, the “protection of residual β cell function” value in [4] (oral administration, recent-onset IDDM) is listed as “failed to protect the residual β cell function”. Moreover, the “delay or prevention of onset of disease” value in series [4] (subcutaneous administration, high-risk relatives of patients with IDDM) is recorded as “did not delay or prevent the onset of disease”. In addition, the “anti-insulin Ig-specific humoral response, Igf2-/- compared with Igf2+/+ mice” value in the series with Igf2-/- and wt mice [5] was “higher anti-insulin Ig-specific humoral response”.
Consider “GELVDTLQFVCGDRG (listed as Homo sapiens) [IGF-2 B11-25]”, for which the IL10 transcription result with PBMCs [6] (PBMCs from adult Type 1 diabetics) and in the series on PBMCs [6] (PBMCs from healthy controls) was “very significantly increases” in each case. Also, the “ratio IL-10/IFN-γ, fold higher than after insulin B9-23” value in series [2] (50 μM, versus insulin B9-23) is roughly 7 fold. Also, the “number of IFN-γ secreting cells” value in series [2] amounted to 45.60±11.67. In addition, in series [2], the “number of IL-10 secreting cells” value came out at 1162±208.6. Moreover, in series [2], the “ratio of IL-10/IFN-γ” value is 67.36±37.58. Besides, the “number of IL-10 secreting cells versus Insulin B9-23” value is listed as “no significant difference” in series [7] (PBMCs from healthy controls) and “significantly higher” in [7] (PBMCs of adult Type 1 diabetics). Also, the “IL-10 concentration in supernatants versus basal conditions or Insulin B9-23” value in the series on PBMCs [8] (PBMC cultures from Type 1 diabetics) and in the series on PBMCs [8] (PBMC cultures from healthy controls) was “significantly increased” in each case. Further, in series [9], the “IL-2 production, Igf2-/- compared with wt mice” value was “significant increase of IL-2 production”.

The record behind these values is US20070172453A1, “Tolerogenic approach for type 1 diabetes” (priority 2002, published 2007).
